Assays:
hP2X7 receptor = target: T1, hP2X7 receptor (Homo sapiens, UniProt Q99572); assay: Whole-cell recordings in HEK293 cells transiently transfected with hP2X7 receptors (Example 3); assay type: cell-based
T1 construct: a clone containing the complete open reading frame of the hP2X7 receptor was constructed; expressed in transfected cells; host or cells: HEK293 (transient), pcDNA3
T1 sequence (Q99572 1-595): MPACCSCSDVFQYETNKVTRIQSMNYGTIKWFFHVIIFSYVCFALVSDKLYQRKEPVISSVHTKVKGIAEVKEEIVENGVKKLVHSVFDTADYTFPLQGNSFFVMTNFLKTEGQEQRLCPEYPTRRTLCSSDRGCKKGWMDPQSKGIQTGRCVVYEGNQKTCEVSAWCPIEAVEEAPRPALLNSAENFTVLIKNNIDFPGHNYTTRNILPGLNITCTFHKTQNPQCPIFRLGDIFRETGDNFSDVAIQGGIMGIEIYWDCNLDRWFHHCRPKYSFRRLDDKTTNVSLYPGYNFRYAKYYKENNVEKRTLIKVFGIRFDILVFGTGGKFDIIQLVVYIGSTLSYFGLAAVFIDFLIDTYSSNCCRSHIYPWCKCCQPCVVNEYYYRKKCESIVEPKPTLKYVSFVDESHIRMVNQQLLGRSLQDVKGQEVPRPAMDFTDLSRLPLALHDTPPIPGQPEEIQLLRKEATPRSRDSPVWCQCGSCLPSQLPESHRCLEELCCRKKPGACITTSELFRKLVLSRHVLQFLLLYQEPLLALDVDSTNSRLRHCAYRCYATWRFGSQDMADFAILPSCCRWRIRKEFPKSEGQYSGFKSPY
Experimental: Cell culture. HEK293 cells were transiently transfected with cDNA (1 μg/ml) and lipofectin dissolved in Optimem (GIBCO) placed into petri dishes containing four coverslips onto which cells were plated at a density of about 8×10^4/coverslip. Cells were washed 5 h later and normal DMEM applied. Electrophysiological studies or dye uptake measurements were carried out 18-49 h later. For each set of transfections, parallel experiments were performed on HEK cells transfected with cDNA encoding both rP2X7 and hP2X7 receptors.
Electrophysiological experiments. Whole-cell recordings were made using the EPC9 patch-clamp amplifier and Pulse acquisition programs (HEKA, Lambrecht, Germany). Patch pipettes (5-7 MΩ) contained (mM) CsCl or NaCl 154, EGTA 10, HEPES 5. The normal extracellular solution contained (mM) NaCg 147, KCl2, CaCl2 2, MgCl2 1, HEPES 10 and glucose 12, and the “low divalent” solution had no magnesium and 0.3 mM CaCl2. Agonists were delivered by U-tube delivery system; antagonists, when applied, were present in both superfusion and U-tube. Experiments were carried out at room temperature.

P2X7 receptor = target: T2, P2X7 receptor (Rattus norvegicus, UniProt Q64663); assay: YO-PRO-1 uptake, cell counts, in HEK cells stably expressing P2X7 receptor; assay type: cell-based; conditions: incubation with BzATP for 3 to 5 min, low concentration of divalent cations
T2 construct: yielding a construct that encoded the entire P2X7 protein; expressed in transfected cells
T2 sequence (Q64663 1-595): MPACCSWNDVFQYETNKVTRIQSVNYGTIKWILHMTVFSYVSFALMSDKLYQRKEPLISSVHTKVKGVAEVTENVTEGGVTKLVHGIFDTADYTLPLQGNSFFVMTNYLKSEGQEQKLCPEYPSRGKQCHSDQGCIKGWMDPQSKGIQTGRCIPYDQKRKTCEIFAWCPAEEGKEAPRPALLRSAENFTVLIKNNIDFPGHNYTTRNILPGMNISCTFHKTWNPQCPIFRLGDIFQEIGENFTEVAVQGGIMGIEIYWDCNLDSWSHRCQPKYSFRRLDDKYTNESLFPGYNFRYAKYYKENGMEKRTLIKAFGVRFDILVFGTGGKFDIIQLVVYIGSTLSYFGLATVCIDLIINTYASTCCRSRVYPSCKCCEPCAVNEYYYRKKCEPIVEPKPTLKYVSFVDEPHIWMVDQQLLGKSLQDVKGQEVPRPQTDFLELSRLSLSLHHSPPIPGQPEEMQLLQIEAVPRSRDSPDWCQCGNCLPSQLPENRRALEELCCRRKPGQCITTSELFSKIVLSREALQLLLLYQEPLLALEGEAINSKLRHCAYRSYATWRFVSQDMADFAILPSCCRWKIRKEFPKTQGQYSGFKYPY
Experimental: YO-PRO-1 (10 μM; Molecular Probes, Eugene, Oreg.) was added to the superfusion fluid during electrophysiological recordings 3 to 6 min before switching to low divalent solution and washed out upon switching back to normal divalent solution, after which the fluorescent lamp was turned on and cells were examined with a fluorescein isothiocyanate filter. For cell counts, 500 cells per cover slip were counted in each case.

EC50 at hP2X7 relative to rP2X7 receptor (fold greater) (hP2X7 receptor): 25 fold
potency to activate the receptor relative to ATP (hP2X7 receptor): 10 fold
cation current induced by maximal concentration of BzATP (hP2X7 receptor; 300 μM BzATP, n=12): 1777±342 pA
current measured at 30 s, of the peak current (hP2X7 receptor; BzATP 300 μM, low extracellular divalent concentrations, n=16): 18±2%
stably transfected cells that took up YO-PRO-1 (P2X7 receptor): > 85%
Structure (SMILES): Nc1ncnc2c1ncn2[C@@H]1O[C@H](COP(=O)(O)OP(=O)(O)OP(=O)(O)O)[C@@H](OC(=O)c2ccc(C(=O)c3ccccc3)cc2)[C@H]1O [BzATP, 3′-O-(4-benzoyl)benzoyl ATP]

Reference: patent publication US6509163B1, “Methods of screening modulators of mammalian P2X7 purinergic receptors” (Glaxo Group Limited, priority 1997, dated 2003)
